The values below come from PMC9919311, “Catechol-O-methyltransferase Inhibitors from Calendula officinalis Leaf” (Molecules, 2023).

Like-named read-outs stand apart in the source and are kept apart here.

One data set deals with T1, Recombinant human COMT (Homo sapiens, UniProt P21964).
T1 construct: made in house
T1 sequence (P21964 1-271): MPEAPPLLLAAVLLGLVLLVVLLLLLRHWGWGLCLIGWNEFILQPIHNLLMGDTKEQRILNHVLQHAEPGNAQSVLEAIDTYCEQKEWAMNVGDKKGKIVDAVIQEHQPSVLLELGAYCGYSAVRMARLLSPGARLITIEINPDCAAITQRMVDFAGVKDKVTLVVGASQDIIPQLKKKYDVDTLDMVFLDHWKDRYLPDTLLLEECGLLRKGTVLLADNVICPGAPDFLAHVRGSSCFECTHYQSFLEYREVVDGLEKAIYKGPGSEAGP
Kind of data set: COMT inhibitory assay (3-BTD fluorescent substrate). It counts as biochemical.

For data set [1] the following is noted: cited from earlier work.
Setting [2] is: 1 µM COMT, 200 µM SAM, 20 µM 3-BTD, 0–100 µM inhibitor, pH 7.5, 37 °C, read-out: COMT inhibitory activities (IC50).

Consider `COc1cc(-c2oc3cc(O)cc(O)c3c(=O)c2O[C@@H]2O[C@H](CO)[C@@H](O)[C@H](O)[C@H]2O)ccc1O` [Compound 2, isorhamnetin 3-O-β-glucoside], for which the half-maximal inhibitory concentration (IC50) (commonly the concentration needed to halve the response being measured) at Recombinant human COMT (setting [2]) came to 55 µM.

As to `COc1cc(-c2oc3cc(O)cc(O)c3c(=O)c2O[C@@H]2O[C@H](COC(=O)CC(=O)O)[C@@H](O)[C@H](O)[C@H]2O)ccc1O` [Compound 7, isorhamnetin 3-O-(6″-O-malonyl)-β-glucoside], on Recombinant human COMT (setting [2]), the concentration for half-maximal inhibition (IC50) was more than 100 µM.

With `COC(=O)CC(=O)OC[C@H]1O[C@@H](Oc2c(-c3ccc(O)c(O)c3)oc3cc(O)cc(O)c3c2=O)[C@H](O)[C@@H](O)[C@@H]1O` [Compound 6], the IC50 at Recombinant human COMT (setting [2]) worked out at 42 µM.

Consider `O=C(C=Cc1ccc(O)c(O)c1)OC1CC(O)(C(=O)O)CC(O)C1OC(=O)C=Cc1ccc(O)c(O)c1` (centres unmarked) [Compound 9, 3,4-dicaffeoylquinic acid], for which, on Recombinant human COMT (setting [2]), the IC50 turned out to be 21 µM. Also, the “COMT inhibitory activity (in words)” value on Recombinant human COMT (isolated compounds 1–10 compared) is given as “highest inhibitory activity”.

As to `COc1cc(C(=O)O)cc(OC)c1O` [Compound 10, syringic acid], the half-inhibitory concentration (IC50) on Recombinant human COMT (setting [2]) is more than 100 µM.

In the case of `CC1OC(OC2C(Oc3c(-c4ccc(O)c(O)c4)oc4cc(O)cc(O)c4c3=O)OC(CO)C(O)C2O)C(O)C(O)C1O` (stereo not drawn) [Compound 3, quercetin 3-O-β-neohesperidoside], the half-maximal inhibitory concentration (IC50) on Recombinant human COMT stood at 71 µM.

In the case of `O=C(/C=C/c1ccc(O)c(O)c1)O[C@@H]1C[C@](O)(C(=O)O)C[C@@H](O)[C@H]1O` [Compound 8, chlorogenic acid], the IC50 on Recombinant human COMT (setting [2]) is 100 µM.

For the molecule `CC1OC(OC2C(Oc3c(-c4ccc(O)c(O)c4)oc4cc(O)cc(O)c4c3=O)OC(COC(=O)CC(=O)O)C(O)C2O)C(O)C(O)C1O` (stereo not drawn) [Compound 4, quercetin 3-O-(2″-O-α-rhamnosyl-6″-O-malonyl)-β-glucoside], on Recombinant human COMT (setting [2]), the half-maximal inhibitory concentration (IC50) is 65 µM.

Regarding `O=C(O)CC(=O)OC[C@H]1O[C@@H](Oc2c(-c3ccc(O)c(O)c3)oc3cc(O)cc(O)c3c2=O)[C@H](O)[C@@H](O)[C@@H]1O` [Compound 5, quercetin 3-O-(6″-O-malonyl)-β-glucoside], the 50% inhibitory concentration (IC50) at Recombinant human COMT (setting [2]) came to 59 µM.

Take `Cc1ccc(C(=O)c2cc(O)c(O)c([N+](=O)[O-])c2)cc1` [Tolcapone]: the hepatotoxicity entry in data set [1] is on record as “severe hepatotoxicity”.
